Experiments:
[1] = test system: A431, human epidermoid carcinoma cells; assay: Cell cycle analysis (FACS), mitotic arrest in G2/M; format: cell-based; settings: Homo sapiens, A-431, 24 h, read-out: FACS Assay: concentration required to achieve inhibition in FACS assay
Description: The cell cycle analysis was performed as follows. Cancer cells (A431, human epidennoid carcinoma cells) were maintained in culture in D-MEM media with 10% FBS and 1 mg/ml glutamate. Prior to experiment, cells were plated onto 6-well plates for a final density of 500,000 cells/well at the time of treatment. Cells were treated with the compounds of the invention at a concentration of about 0.01 to 1 μM final concentrations (final 0.1% DMSO) for 24 hours, then trypsinized, collected, rinsed in PBS (phosphate buffered saline), and fixed in 70% cold ethanol overnight at 4° C. The cells were then rinsed with PBS, resuspended in PBS with 0.2% Tween, RNAse was added (final 1 μg/ml), cells were incubated at 37° C. for 15 min, followed by addition of Propidium Iodide (final 50 μg/ml), and a 30 minute incubation at room temperature. DNA ploidy was analyzed using flow cytometers (Epics Excel, Beckman-Coulter, or Guava PCA-96, Guava Technologies) and mitotic arrest characterized by massive accumulation of cells in the G2/M phase of cell cycle.
Cancer cells (A431, human epidermoid cells) were maintained in culture in D-MEM media with 10% FBS and 1 mg/ml glutamate. Prior to experiment, cells are plated onto 6-well plates for a final density of 500,000 cells/well at the time of treatment. Cells were treated with compounds at 0.01-1 μM final concentrations (final […] DMS 0) for 24 hours, then trypsinized, collected, rinsed in PBS (phosphate buffered saline), and fixed in 70% cold ethanol overnight at 4° C. Cells were then rinsed with PBS, resuspended in PBS with 0.2% Tween, RNAse was added (final 1 μg/ml), cells were incubated at 37° C. for 15 min, followed by addition of Propidium Iodide (final 50 μg/ml), and a 30 minute incubation at room temperature. DNA ploidy was analyzed using cell sorters (Epics Excel, Beckman-Coulter, or Guava PCA-96, Guava Technologies) and mitotic arrest characterized by massive accumulation of cells in the G2/M phase of cell cycle.

bovine tubulin = assay: In vitro tubulin polymerization assay (turbidity at 340 nm); format: biochemical; settings: 10 μM compound, 30 minute data point, vs 1% DMSO control
Method in brief: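 Bovine tubulin (97%, <3% MAPs) at 3 mg/ml final in G-PEM pH 7 with 1 mM GTP and 5% glycerol, added cold to compound wells at 37° C (1% DMSO final). A340 read each minute for 30 min; percent inhibition from 30-min point versus DMSO control.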

Compound | minimal effective concentration [1] | Tubulin Assay: percent inhibition at 10 μM based on 30 minute data (bovine tubulin)
Fc1ccc(CNc2ncccc2-c2nnc(Nc3ccc4c(c3)OCO4)[nH]2)cc1F [Compound 43, {3-[5-(Benzo[1,3]dioxol-5-ylamino)-4H-[1,2,4]triazol-3-yl]-pyridin-2-yl}-(3,4-difluoro-benzyl)-amine] | 1 µM | 84%
Fc1ccc(CNc2ncccc2-c2nnc(Nc3ccc4c(c3)OCCO4)[nH]2)cc1F [Compound 44, (3,4-Difluoro-benzyl)-{3-[5-(2,3-dihydro-benzo[1,4]dioxin-6-ylamino)-4H-[1,2,4]triazol-3-yl]-pyridin-2-yl}-amine] | 1 µM | 84%
COc1cccc(Nc2nnc(-c3cccnc3NCc3ccc(F)c(F)c3)[nH]2)c1 [Compound 45, (3,4-Difluoro-benzyl)-{3-[5-(3-methoxy-phenylamino)-4H-[1,2,4]triazol-3-yl]-pyridin-2-yl}-amine] | 1 µM | 83%
COc1cc(Nc2ncccc2-c2nnc(Nc3ccc4c(c3)OCCO4)[nH]2)cc(OC)c1 [Compound 50, {3-[5-(2,3-Dihydro-benzo[1,4]dioxin-6-ylamino)-4H-[1,2,4]triazol-3-yl]-pyridin-2-yl}-(3,5-dimethoxy-phenyl)-amine] | 0.1 µM | 90%
COc1ccc(CNc2ncccc2-c2nnc(Nc3ccc4c(c3)OCCO4)[nH]2)cc1 [Compound 51, {3-[5-(2,3-Dihydro-benzo[1,4]dioxin-6-ylamino)-4H-[1,2,4]triazol-3-yl]-pyridin-2-yl}-(4-methoxy-benzyl)-amine] | 1 µM | 68%
COc1cc(Nc2ncccc2-c2nnc(NCC3CCCO3)[nH]2)cc(OC)c1 (stereo not drawn) [Compound 56, (3,5-Dimethoxy-phenyl)-(3-{5-[(tetrahydro-furan-2-ylmethyl)-amino]-4H-[1,2,4]triazol-3-yl}-pyridin-2-yl)-amine] | 1 µM | 97%
COc1cccc(CNc2nnc(-c3cccnc3Nc3cc(OC)cc(OC)c3)[nH]2)c1 [Compound 58, (3,5-Dimethoxy-phenyl)-{3-[5-(3-methoxy-benzylamino)-4H-[1,2,4]triazol-3-yl]-pyridin-2-yl}-amine] | 0.1 µM | 100%
COc1ccc(CNc2nnc(-c3cccnc3Nc3cc(OC)cc(OC)c3)[nH]2)cc1 [Compound 59, (3,5-Dimethoxy-phenyl)-{3-[5-(4-methoxy-benzylamino)-4H-[1,2,4]triazol-3-yl]-pyridin-2-yl}-amine] | 1 µM | 88%
COc1cc(Nc2ncccc2-c2nnc(Nc3cccc([N+](=O)[O-])c3)[nH]2)cc(OC)c1 [Compound 60a, (3,5-dimethoxy-phenyl)-{3-[5-(3-nitro-phenylamino)-4H-[1,2,4]triazol-3-yl]-pyridin-2-yl}-amine] | 0.1 µM | 95%
c1cnc(OCc2ccc3c(c2)OCO3)c(-c2nnc(Nc3ccc4c(c3)OCCO4)[nH]2)c1 [Compound 71, {5-[2-(Benzo[1,3]dioxol-5-ylmethoxy)-pyridin-3-yl]-4H-[1,2,4]triazol-3-yl}-(2,3-dihydro-benzo[1,4]dioxin-6-yl)-amine] | 0.1 µM | 83%
c1cnc(OCc2ccc3c(c2)OCO3)c(-c2nnc(Nc3ccc4c(c3)OCO4)[nH]2)c1 [Compound 72, Benzo[1,3]dioxol-5-yl-{5-[2-(benzo[1,3]dioxol-5-ylmethoxy)-pyridin-3-yl]-4H-[1,2,4]triazol-3-yl}-amine] | 0.1 µM | 100%
COc1cccc(Nc2nnc(-c3cccnc3OCc3ccc4c(c3)OCO4)[nH]2)c1 [Compound 73, {5-[2-(Benzo[1,3]dioxol-5-ylmethoxy)-pyridin-3-yl]-4H-[1,2,4]triazol-3-yl}-(3-methoxy-phenyl)-amine] | 1 µM | 70%
COc1cc(Nc2ncccc2-c2nnc(-c3ccc(S(C)(=O)=O)cc3)[nH]2)cc(OC)c1 [Compound 74, (3,5-Dimethoxy-phenyl)-{3-[5-(4-methanesulfonyl-phenyl)-4H-[1,2,4]triazol-3-yl]-pyridin-2-yl}-amine] | 0.1 µM | 87%
CS(=O)(=O)c1ccc(-c2nnc(-c3cccnc3Nc3cccc(S(N)(=O)=O)c3)[nH]2)cc1 [Compound 92, 3-{3-[5-(4-Methanesulfonyl-phenyl)-4H-[1,2,4]triazol-3-yl]-pyridin-2-ylamino}-benzenesulfonamide] | 10 µM | 74%
CS(=O)(=O)c1ccc(-c2nnc(-c3cccnc3NCc3ccc4c(c3)CCO4)[nH]2)cc1 [Compound 97, (2,3-Dihydro-benzofuran-5-ylmethyl)-{3-[5-(4-methanesulfonyl-phenyl)-4H-[1,2,4]triazol-3-yl]-pyridin-2-yl}-amine] | 1 µM | 77%
CS(=O)(=O)c1ccc(-c2nnc(-c3cccnc3NCc3ccco3)[nH]2)cc1 [Compound 98, Furan-2-ylmethyl-{3-[5-(4-methanesulfonyl-phenyl)-4H-[1,2,4]triazol-3-yl]-pyridin-2-yl}-amine] | 1 µM | 83%
COc1cccc(-c2nnc(-c3cccnc3NCc3ccc(F)c(F)c3)[nH]2)c1 [Compound 100, (3,4-Difluoro-benzyl)-{3-[5-(3-methoxy-phenyl)-4H-[1,2,4]triazol-3-yl]-pyridin-2-yl}-amine] | 10 µM | 70%
Fc1ccc(CNc2ncccc2-c2nnc(-c3ccc4c(c3)OCO4)[nH]2)cc1F [Compound 101, [3-(5-Benzo[1,3]dioxol-5-yl-4H-[1,2,4]triazol-3-yl)-pyridin-2-yl]-(3,4-difluoro-benzyl)-amine] | 1 µM | 66%
CS(=O)(=O)c1ccc(-c2nnc(-c3cccnc3NCc3ccc(F)c(F)c3)[nH]2)cc1 [Compound 102, (3,4-Difluoro-benzyl)-{3-[5-(4-methanesulfonyl-phenyl)-4H-[1,2,4]triazol-3-yl]-pyridin-2-yl}-amine] | 0.1 µM | 88%
CS(=O)(=O)c1ccc(-c2nnc(-c3cccnc3NCC3COCCO3)[nH]2)cc1 (stereo not drawn) [Compound 103, [1,4]Dioxan-2-ylmethyl-{3-[5-(4-methanesulfonyl-phenyl)-4H-[1,2,4]triazol-3-yl]-pyridin-2-yl}-amine] | 1 µM | 80%
CS(=O)(=O)c1ccc(-c2nnc(-c3cccnc3NCc3ccc4c(c3)OCCO4)[nH]2)cc1 [Compound 105, (2,3-Dihydro-benzo[1,4]dioxin-6-ylmethyl)-{3-[5-(4-methanesulfonyl-phenyl)-4H-[1,2,4]triazol-3-yl]-pyridin-2-yl}-amine] | 1 µM | 91%
CS(=O)(=O)c1ccc(-c2nnc(-c3cccnc3NCC3CCCO3)[nH]2)cc1 (stereo not drawn) [Compound 106, {3-[5-(4-Methanesulfonyl-phenyl)-4H-[1,2,4]triazol-3-yl]-pyridin-2-yl}-(tetrahydro-furan-2-ylmethyl)-amine] | 0.1 µM | 79%
CS(=O)(=O)c1ccc(-c2nnc(-c3cccnc3NCc3ccc(F)cc3)[nH]2)cc1 [Compound 108, (4-Fluoro-benzyl)-{3-[5-(4-methanesulfonyl-phenyl)-4H-[1,2,4]triazol-3-yl]-pyridin-2-yl}-amine] | 0.1 µM | 91%
c1ccc(-c2nnc(Nc3ccc4c(c3)OCCO4)[nH]2)c(NCc2ccc3[nH]ncc3c2)c1 [Compound 117, (2,3-Dihydro-benzo[1,4]dioxin-6-yl)-(5-{2-[(1H-indazol-5-ylmethyl)-amino]-phenyl}-4H-[1,2,4]triazol-3-yl)-amine] | 1 µM | 84%

Source: patent publication US20090048301A1 (IMCLONE SYSTEMS INCORPORATED, priority 2003, published 2009)
